Measurements: patent US6413967B1, “Inhibition of novel calcium entry pathway in electrically non-excitable cells acting as an anti-proliferative therapy” (The University of Virginia Patents Foundation, priority 1995, dated 2002)

How the values were obtained:
[1] = system: VG Ca^2+ current in Jurkat cells; assay: perforated patch clamp, voltage gated (VG) Ca2+ current; type: cell-based, human; conditions: for effect on the VG Ca^2+ current: amiloride 100 μM, MnCl2 300 μM, NiCl2 1 mM, W-7 alone (unstimulated current)
Experimental: (§1) All recordings were performed using the perforated patch method (Horn et al, J. Gen. Physiol. (1988) 92:145) of the gigaseal patch clamp technique (Hammil et al, Pflugers Arch (1981) 391:85) with microelectrodes of 5-10 megohm series resistance. In all solutions for voltage clamp, K^+ was replaced with Cs^+ to block outward K^+ currents (Fox et al, J. Physiol. (Lond.) (1987) 392:149). The bath solution contained (in mM): NaCl, 155; CsCl, 4.5; CaCl2, 2; MgCl2, 1; D-glucose, 5; HEPES, 10 (pH 7.4 with NaOH). The pipette solution contained (in mM): CsCl, 55; Cesium methanesulfonate, 70; CaCl2, 1; MgCl2, 7; HEPES, 10 (pH 7.3 with NaOH). Nystatin was made as a stock solution of 6 mg/100 μl DMSO, and 2 μl of the stock was added to 1 ml of the pipette solution for use. Both pipette and bath solutions were 290-300 mOsm. Experiments were performed on cells at room temperature using the Axopatch-1D patch clamp (Axon Instruments, Foster City, Calif.) after correction of junction potentials and leak subtraction. Records were low-pass filtered at 500 Hz, and the data were collected, stored and analyzed using the pClamp software program (Axon Instruments). For the non-voltage gated current traces, data is presented either as the tracing from a chart recorder or from the digital data in which the current was measured at 5 second intervals and plotted as individual points.

[2] = system: NVG current in Jurkat cells; assay: perforated patch clamp, non-voltage gated (NVG) current; type: cell-based, human; conditions: membrane potential −60 mV, 300 nM thapsigargin, amiloride 100 μM, MnCl2 300 μM, NiCl2 1 mM, W-7 30 μM, NDGA 10 μM
Experimental: as §1

[3] = system: Ca^2+ entry pathway in Jurkat cells; assay: thapsigargin-stimulated Ca2+ entry measured with Ca2+-sensitive dyes (indo-1, fluo-3); type: cell-based, human; conditions: 300 nM thapsigargin, amiloride 100 μM (fluo-3), Ni^2+ 1 mM, NDGA 10 μM (indo-1)
Experimental: Lymphocytes were suspended in culture medium at 37° C. for 1 h in the presence of 1 μM of the Ca^2+ indicator dye indo-1 /AM. Cells were washed twice in buffer A (140 mM NaCl, 3 mM KCl, 1 mM CaCl2, 1 mM MgCl2, 0.1% D-glucose, 1% FBS, 10 mM HEPES, pH 7.4) and were suspended at a final concentration of 1×10^6 cells/ml in buffer A. The excitation wavelength was 340 nm and emission was monitored at 398 nm in an SLM 8000 spectrofluorometer (SLM/Aminco, Urbana, Ill.), with the temperature maintained at 37° C. Data are plotted as relative fluorescence intensity at 398 nm as a measure of [Ca^2+]i. For FIG. 7, indo-1 emission was monitored at 398 nm and 480 nm and [Ca^2+]i was determined as described previously (Gray et al, J. Immunol (1987) 138:63; Haverstick et al, Mol. Biol. Cell (1993) 4:173).
Jurkat cells were loaded with indo-1/AM as described above. The excitation wavelength was 340 nm and emission was measured at 441 nm. The fluorescence of indo-1 at 441 nm is insensitive to changes in [Ca^2+]i (Sage et al, Biochem. J. (1989) 258:923) and is plotted as relative fluorescence intensity.
Because amiloride interferes with the fluorescence of indo-1 (Wacholtz et al, J. Immunol. (1992) 149:1912), fluo-3 was used to monitor [Ca^2+]i in the presence of amiloride. Jurkat cells were suspended in culture medium at 37° C. for 1 h in the presence of 1 μM fluo-3/AM and 1 mM probenecid to decrease dye leakage (DiVirgilio et al, Methods Cell Biol. (1989) 31:453). After two washes in buffer A, cells were suspended at a concentration of 1×10^6 cells/ml in buffer A with 1 mM probenecid and were maintained in a cuvette at 37° C. The excitation wavelength was 506 nm and the emission was monitored at 526 nm. Data are presented sa relative fluorescence intensity at 526 nm.

[4] = system: Ca^2+ entry pathway in Jurkat cells; conditions: previously demonstrated (Haverstick et al 1993); cited from earlier work
[5] = system: [Ca^2+]i in Jurkat T cells; assay: receptor-stimulated Ca2+ influx in Jurkat T cells (anti-CD3 mAb OKT3); type: cell-based, human; conditions: Homo sapiens, Jurkat; maximal [Ca^2+]i after anti-CD3 mAb OKT3; drug 1 min prior
Experimental: Initially, all drugs are screened using Jurkat T cells incubated with indo-1/AM as outlined below. In the event that there is an effect of the drug on the maximum [Ca^2+]i reached following treatment of the cells with the anti-CD3 mAb […], the drug is evaluated for any effects on the spectral characteristics of indo-1 as outlined in Haverstick and Gray, Mol. Biol. Cell (1993) 4:173. If there is an effect of the drug on the spectral characteristics of indo-1 , the drug is further examined for spectral effects on the combination of fura-red and fluo-3. If there is no effect of the drug on the fura-red/fluo-3 combination, the drug is examined for effects on the maximum [Ca^2+]i reached following OKT3 treatment of cells incubated with 5 μM fura-red and […] as outlined below.
Jurkat cells are incubated in RPMI-1640 plus 5% fbs in the presence of the acetoxymethyl ester of either indo-1 (1 μM) or the combination of fura-red (5 μM) with fluo-3 (1 μM) for one hour at 37° C. Cells are washed three times in buffer A [[…] 4-(2-hydroxyethyl)-1-piperazine ethanesulfonic acid (HEPES), pH 7.4, 3 MM KCl, 1 mM MgCl2, 1 mM CaCl2, 140 mM NaCl, 0.1% glucose] containing 1% fbs and suspended to a final concentration of 1×10^6/ml. Cells are then placed in the 37° C. jacketed cell holder of the SLM 8000C. Antigen receptor engagement is mimicked by the addition of the anti-CD3 monoclonal antibody OKT3 (Gray et al, J. Exp. Med. (1988) 167:1963; Gray et al, J. Immunol. 142:1631). The effect of drug added prior to receptor stimulation or at the plateau phase of Ca^2+ entry is determined as follows:
Prior drug: 10 or 30 μM drug @ 30 seconds, 1 μg/ml OKT3 at 90 seconds
Post drug: 1 μg/ml OKT3 at 30 second, 10 or 30 μM drug @ 120 seconds

Jurkat T cells = assay: Jurkat cell proliferation, tetrazolium dye; type: cell-based, human; conditions: Homo sapiens, Jurkat; incubation 44 to 48 h; read-out: JURKAT prolif IC50
Experimental: (§2) The effect of various drugs on the proliferation of Jurkat T cells, MDA-468 human breast cancer cells and PC3 human prostate cancer cells was determined by incubating the cells with the indicated concentrations of drug for 48 hours. The number of viable cells remaining at the end of the incubation period was evaluated using the procedure outlined in Example 4.
(§3) Cells are plated in triplicate in a 96-well flat-bottomed plate (Jurkat: 5e4 cells/well in RPMI-1640 plus 5% fbs; MDA468: 2.5e4 per well in DMEM plus 5% fbs and 11 μg/ml insulin) in the absence (control) or presence of drug at 3, 10, 30, and 100 μM. An additional control of 100 μM drug in RPMI-1640 plus 5% fbs or DMEM plus 5% fbs and 11 μg/Ml insulin with no cells is included with each run to control for possible drug interactions with the dye. The plate is then placed in a 5% CO2 37° C. incubator for 44 to 48 hours. 20 μl of dye solution containing a tetrazolium dye (3-(4,5-dimethylthiazol-2-yl)-5-(3-carboxymethoxyphenyl)-2-(4-sulfophenyl)-2H-tetrazolium, Owen's reagent) plus coupling reagent (phenazine methosulfate) is added to each well, the plate is returned to the incubator, and the absorbance at 490 nm is read using an ELISA plate reader 3 to 4 h (Jurkat cells) or 2 to 3 h (MDA-468 cells) later. All data are presented as percent of control (no drug addition). With this protocol, it is possible to determine the effect of 5 drugs at 4 concentrations in a single 96-well plate as outlined below: […]

[6] = system: [Ca^2+]i in MDA-468 cells; assay: EGF receptor-stimulated Ca2+ influx in MDA-468 cells; type: cell-based; conditions: Homo sapiens; maximal [Ca^2+]i, Ca^2+ entry triggered by 50 ng/ml EGF
[7] = system: MDA-468 human breast cancer cells; assay: MDA-468 cell proliferation, tetrazolium dye; type: cell-based; conditions: Homo sapiens; incubation 44 to 48 h; read-out: MDA-468 prolif IC50
Experimental: as §2, §3

[8] = system: human prostate cancer cell line PC3; assay: PC3 cell proliferation, tetrazolium dye; type: cell-based; conditions: PC-3, 5×10^4 PC3 cells, 48 hours

**Q.** What does the source list for `[Cl][Ni][Cl]` [Ni^2+, NiCl2]?
**A.** effect on the VG Ca^2+ current [1]: eliminated the VG Ca^2+ current; effect on the thapsigargin-induced NVG current [2]: blocked; effect on thapsigargin-stimulated Ca^2+ entry [3]: blocked Ca^2+ entry

**Q.** Which results are given for `NCCCCCCNS(=O)(=O)c1cccc2c(Cl)cccc12` [W-7, N-(6-aminohexyl)-5-chloro-1-naphthalenesulfonamide]?
**A.** effect on the VG Ca^2+ current [1]: not affected; effect on thapsigargin-mediated augmentation of the VG Ca^2+ current ([1]; drug added before 300 nM thapsigargin, W-7 30 μM): blocked the augmentation; effect on the thapsigargin-induced NVG current [2]: not affected; effect on Ca^2+ influx induced by thapsigargin, by Ca^2+-sensitive dyes [4]: eliminates

**Q.** For `N=C(N)NC(=O)c1nc(Cl)c(N)nc1N` [amiloride], which “effect on the VG Ca^2+ current” value [1] is on record?
**A.** Its value is “not blocked”.

**Q.** And the “effect on the thapsigargin-induced NVG current” value [2]?
**A.** Its value is “virtually eliminated”.

**Q.** What about the “effect on the thapsigargin-induced NVG current” value ([2]; listed as Amiloride) of the same molecule?
**A.** Its value is “completely inhibited”.

**Q.** What about the “effect on thapsigargin-stimulated Ca^2+ entry” value [3] of the same molecule?
**A.** Its value is “no effect”.

**Q.** What does the source list for `CN(C)CCCN1c2ccccc2Sc2ccc(Cl)cc21` [chloropromazine, 2-chloro-10-[3-dimethylaminopropyl]-phenothiazine]?
**A.** IC50 [5]: 25 µM; IC50 (Jurkat T cells): 90 µM; IC50 [6]: 5 µM; IC50 [7]: 20 µM

**Q.** For `CC(CN1c2ccccc2Sc2ccccc21)N(C)C` (stereo not drawn) [promethazine, N,N,α-trimethyl-10H -phenothiazine-10-ethanamine], which IC50 [8] is on record?
**A.** Its IC50 is about 40 µM.

**Q.** And the IC50 [5]?
**A.** The IC50 was 65 µM.

**Q.** What about the IC50 (Jurkat T cells) of the same molecule?
**A.** Its IC50 is 3.5 µM.

**Q.** And the IC50 [6]?
**A.** The IC50 was 105 µM.

**Q.** What about the IC50 [7] of the same molecule?
**A.** The IC50 was 30 µM.
